Experimental data from the supplement of paper PMC10307832.

Experiments:
Assay in all cases: relative viability (nuclei count vs DMSO), 5 days (fraction); higher = more cells survive
Lapatinib + Navitoclax = compound: CS(=O)(=O)CCNCc1ccc(-c2ccc3ncnc(Nc4ccc(OCc5cccc(F)c5)c(Cl)c4)c3c2)o1 [Lapatinib] + CC1(C)CCC(c2ccc(Cl)cc2)=C(CN2CCN(c3ccc(C(=O)NS(=O)(=O)c4ccc(N[C@H](CCN5CCOCC5)CSc5ccccc5)c(S(=O)(=O)C(F)(F)F)c4)cc3)CC2)C1 [Navitoclax] (partner 0.5 µM)
In short: (§1)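 Nuclei were stained with Hoechst during a one-step fixation (final 0.05% Triton X-100, 1% formaldehyde, 1 ug/ml Hoechst) carried out 5 days after dosing, then counted on 4× images. The cells, lung cancer lines in 1536-well plates, had been dosed by pin tool the day after seeding with one drug alone or a fixed anchor-drug dose plus five library-drug doses (not always all listed) in √10 steps. Relative viability is the nuclei count in treated wells divided by that in vehicle wells, and each value is the median of duplicate plates.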

Wnt-C59 + Palbociclib = compound: CC1=NC=CC(=C1)C2=CC=C(C=C2)CC(=O)NC3=CC=C(C=C3)C4=CN=CC=C4 [Wnt-C59] + CC(=O)c1c(C)c2cnc(Nc3ccc(N4CCNCC4)cn3)nc2n(C2CCCC2)c1=O [Palbociclib] (partner 0.5 µM)
In short: as §1

Wnt-C59 + Phenformin = compound: CC1=NC=CC(=C1)C2=CC=C(C=C2)CC(=O)NC3=CC=C(C=C3)C4=CN=CC=C4 [Wnt-C59] + N=C(N)NC(=N)NCCc1ccccc1 [Phenformin] (partner 250 µM)
In short: as §1

Wnt-C59 + Trametinib = compound: CC1=NC=CC(=C1)C2=CC=C(C=C2)CC(=O)NC3=CC=C(C=C3)C4=CN=CC=C4 [Wnt-C59] + CC(=O)Nc1cccc(-n2c(=O)n(C3CC3)c(=O)c3c(Nc4ccc(I)cc4F)n(C)c(=O)c(C)c32)c1 [Trametinib] (partner 0.02 µM)
In short: as §1

| Cell Line | relative viability (Lapatinib + Navitoclax; first compound 0.02 µM) | relative viability (Lapatinib + Navitoclax; first compound 0.06325 µM) | relative viability (Lapatinib + Navitoclax; first compound 0.2 µM) | relative viability (Lapatinib + Navitoclax; first compound 0.6325 µM) | relative viability (Lapatinib + Navitoclax; first compound 2 µM) | relative viability (Wnt-C59 + Palbociclib; first compound 0.001 µM) | relative viability (Wnt-C59 + Palbociclib; first compound 0.01 µM) | relative viability (Wnt-C59 + Palbociclib; first compound 0.03162 µM) | relative viability (Wnt-C59 + Palbociclib; first compound 0.1 µM) | relative viability (Wnt-C59 + Phenformin; first compound 0.001 µM) | relative viability (Wnt-C59 + Phenformin; first compound 0.01 µM) | relative viability (Wnt-C59 + Phenformin; first compound 0.03162 µM) | relative viability (Wnt-C59 + Phenformin; first compound 0.1 µM) | relative viability (Wnt-C59 + Trametinib; first compound 0.001 µM) | relative viability (Wnt-C59 + Trametinib; first compound 0.01 µM) | relative viability (Wnt-C59 + Trametinib; first compound 0.03162 µM) | relative viability (Wnt-C59 + Trametinib; first compound 0.1 µM) |
| --- | --- | --- | --- | --- | --- | --- | --- | --- | --- | --- | --- | --- | --- | --- | --- | --- | --- |
| HCC-44 | 0.874 | 0.89 | 0.995 | 0.949 | 0.768 | 0.982 | 0.977 | 1.04 | 1 | 0.315 | 0.201 | 0.153 | 0.23 | 1.11 | 0.969 | 0.996 | 1.09 |
| HCC-366 |  | 1.02 | 1.08 | 1.03 | 0.914 | 0.461 | 0.376 | 0.402 | 0.386 | 0.614 | 0.605 | 0.668 | 0.528 | 0.398 | 0.4 | 0.385 | 0.341 |
| LU99A | 0.829 | 0.63 | 0.805 | 0.886 | 0.725 | 0.451 | 0.372 | 0.446 | 0.417 | 0.904 | 0.845 | 0.879 | 0.876 | 0.583 | 0.474 | 0.569 | 0.506 |
| NCI-H460 | 0.966 | 1.08 | 1.08 | 1.11 | 1.1 | 0.185 | 0.145 | 0.207 | 0.147 | 0.488 | 0.524 | 0.519 | 0.484 | 0.0894 | 0.111 | 0.191 | 0.156 |
| RERF-LC-KJ | 0.933 | 0.894 | 0.755 | 0.888 | 0.592 | 1.22 | 1.07 | 1.2 | 1.08 | 0.441 | 0.478 | 0.433 | 0.419 | 0.936 | 0.884 | 0.962 | 0.753 |
| NCI-H2087 | 0.932 | 0.96 | 1.06 | 1 | 0.962 | 0.228 | 0.212 | 0.245 | 0.23 | 0.504 | 0.416 | 0.547 | 0.465 | 0.203 | 0.176 | 0.205 | 0.259 |
| COR-L23 | 0.943 | 0.938 | 1.09 | 0.887 | 0.854 | 0.347 | 0.279 | 0.321 | 0.264 | 0.427 | 0.471 | 0.442 | 0.416 | 0.626 | 0.648 | 0.684 | 0.56 |
| NCI-H2009 | 1.11 | 1.21 | 1.21 | 1.17 | 1.14 | 0.231 | 0.149 | 0.198 | 0.239 | 0.535 | 0.514 | 0.495 | 0.469 | 0.267 | 0.315 | 0.267 | 0.294 |
| NCI-H1944 |  |  | 0.885 | 0.864 | 0.789 | 0.343 | 0.328 | 0.334 | 0.339 | 0.197 | 0.188 | 0.19 | 0.197 | 0.433 | 0.449 | 0.431 | 0.369 |
| NCI-H838 | 1.13 | 1.06 | 1.16 | 1.17 | 1 | 0.238 | 0.22 | 0.238 | 0.221 | 0.573 | 0.582 | 0.588 | 0.624 | 0.538 | 0.55 | 0.491 | 0.482 |
| NCI-H2126 |  | 0.799 | 0.764 | 0.806 | 0.739 | 0.378 | 0.36 | 0.35 | 0.36 | 0.542 | 0.507 | 0.53 | 0.541 | 0.579 | 0.532 | 0.573 | 0.581 |
| NCI-H1975 | 0.993 | 1.09 | 1.04 | 0.918 | 0.867 | 0.605 | 0.601 | 0.607 | 0.554 | 0.396 | 0.393 | 0.395 | 0.406 | 0.414 | 0.38 | 0.33 | 0.349 |
| NCI-H727 | 0.388 | 0.341 | 0.401 | 0.4 | 0.32 | 0.607 | 0.678 | 0.627 | 0.733 | 0.337 |  | 0.545 | 0.66 | 0.399 | 0.369 | 0.355 | 0.406 |
| A-427 |  | 0.977 | 0.885 | 0.933 | 0.957 | 0.55 | 0.513 | 0.509 | 0.562 | 0.334 | 0.338 | 0.407 | 0.384 | 0.749 | 0.746 | 0.81 | 0.876 |
| NCI-H1993 | 0.831 |  | 0.618 | 0.69 | 0.51 | 0.694 | 0.648 | 0.663 | 0.602 | 0.49 |  | 0.472 | 0.514 | 0.634 | 0.486 | 0.507 | 0.465 |
| CAL-12T | 1.18 | 1.23 | 1.32 | 1.03 | 0.724 | 0.483 | 0.375 | 0.556 | 0.394 | 0.564 | 0.581 | 0.576 | 0.566 | 0.327 | 0.378 | 0.367 | 0.381 |
| NCI-H441 |  | 0.223 | 0.94 | 0.514 | 0.604 | 0.265 | 0.206 | 0.247 | 0.237 | 0.845 | 0.732 | 1.04 | 0.724 | 0.474 | 0.451 | 0.465 | 0.434 |
